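The compound was tested at five concentrations on cells cultured in 96-well plates, with a 48-hour exposure period. Abbreviation: GI50, concentration required for 50% inhibition of growth. TGI: concentration producing complete growth inhibition.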
What was measured:
Experiment in all cases: NCI-60 cell line screen, 48 h
[1] = test system: UO-31 renal
[2] = test system: NCI-H522 lung
[3] = test system: SR leukemia
[4] = test system: NCI-H460 lung
[5] = test system: COLO 205 colon
[6] = test system: KM12 colon
[7] = test system: K-562 leukemia
[8] = test system: EKVX NSCLC
[9] = test system: SF-295 CNS
[10] = test system: M14 melanoma
[11] = test system: T-47D breast
[12] = test system: DU-145 prostate
[13] = test system: TK-10 renal
[14] = test system: SK-MEL-5 melanoma
[15] = test system: SNB-75 CNS
[16] = test system: 786-0 renal
[17] = test system: A549 NSCLC
[18] = test system: NCI-H226 lung
[19] = test system: HT29 colon
[20] = test system: HOP-62 NSCLC
[21] = test system: OVCAR-3 ovarian
[22] = test system: SK-OV-3 ovarian
[23] = test system: MALME-3M melanoma
[24] = test system: HCT-15 colon
[25] = test system: SF-539 CNS
[26] = test system: NCI/ADR-RES ovarian
[27] = test system: OVCAR-8 ovarian
[28] = test system: HL-60(TB) leukemia
[29] = test system: PC-3 prostate
[30] = test system: RPMI-8226 leukemia
[31] = test system: MDA-MB-231 breast
[32] = test system: NCI-H23 lung
[33] = test system: SW-620 colon
[34] = test system: SNB-19 CNS
[35] = test system: MOLT-4 leukemia
[36] = test system: CCRF-CEM leukemia
[37] = test system: LOX IMVI melanoma
[38] = test system: U251 CNS
[39] = test system: A498 renal
[40] = test system: HCC-2998 colon
[41] = test system: OVCAR-4 ovarian
[42] = test system: RXF 393 renal
[43] = test system: HOP-92 NSCLC
[44] = test system: SK-MEL-2 melanoma
[45] = test system: IGROV1 ovarian
[46] = test system: SN12C renal
[47] = test system: SF-268 CNS
[48] = test system: HS 578T breast
[49] = test system: HCT-116 colon
[50] = test system: ACHN renal
[51] = test system: MCF7 breast
[52] = test system: OVCAR-5 ovarian
[53] = test system: UACC-257 melanoma
[54] = test system: MDA-MB-435
[55] = test system: SK-MEL-28 melanoma
[56] = test system: CAKI-1 renal
[57] = test system: BT-549 breast

CNC(=O)c1ccc(N2CCN(Cc3ccc4nc(C)c(=O)[nH]c4c3F)CC2)c(F)n1
GI50 [1]: > 100 µM
TGI [1]: > 100 µM
GI50 [2]: 21.2 µM
TGI [2]: > 100 µM
GI50 [3]: 63.1 µM
TGI [3]: > 100 µM
GI50 [4]: 73.8 µM
TGI [4]: > 100 µM
GI50 [5]: > 100 µM
TGI [5]: > 100 µM
GI50 [6]: > 100 µM
TGI [6]: > 100 µM
GI50 [7]: > 100 µM
TGI [7]: > 100 µM
GI50 [8]: 81.2 µM
TGI [8]: > 100 µM
GI50 [9]: 48.5 µM
TGI [9]: > 100 µM
GI50 [10]: > 100 µM
TGI [10]: > 100 µM
GI50 [11]: 53.5 µM
TGI [11]: > 100 µM
GI50 [12]: > 100 µM
TGI [12]: > 100 µM
GI50 [13]: 72.3 µM
TGI [13]: > 100 µM
GI50 [14]: 30.5 µM
TGI [14]: > 100 µM
GI50 [15]: 16.4 µM
TGI [15]: 63.8 µM
GI50 [16]: 47.4 µM
TGI [16]: > 100 µM
GI50 [17]: > 100 µM
TGI [17]: > 100 µM
GI50 [18]: 44.9 µM
TGI [18]: > 100 µM
GI50 [19]: > 100 µM
TGI [19]: > 100 µM
GI50 [20]: 43.7 µM
TGI [20]: > 100 µM
GI50 [21]: > 100 µM
TGI [21]: > 100 µM
GI50 [22]: > 100 µM
TGI [22]: > 100 µM
GI50 [23]: > 100 µM
TGI [23]: > 100 µM
GI50 [24]: > 100 µM
TGI [24]: > 100 µM
GI50 [25]: 55.4 µM
TGI [25]: > 100 µM
GI50 [26]: 78.8 µM
TGI [26]: > 100 µM
GI50 [27]: 58.7 µM
TGI [27]: > 100 µM
GI50 [28]: > 100 µM
TGI [28]: > 100 µM
GI50 [29]: > 100 µM
TGI [29]: > 100 µM
GI50 [30]: > 100 µM
TGI [30]: > 100 µM
GI50 [31]: 39.5 µM
TGI [31]: > 100 µM
GI50 [32]: 70.6 µM
TGI [32]: > 100 µM
GI50 [33]: > 100 µM
TGI [33]: > 100 µM
GI50 [34]: 34.2 µM
TGI [34]: > 100 µM
GI50 [35]: > 100 µM
TGI [35]: > 100 µM
GI50 [36]: > 100 µM
TGI [36]: > 100 µM
GI50 [37]: > 100 µM
TGI [37]: > 100 µM
GI50 [38]: 36.5 µM
TGI [38]: > 100 µM
GI50 [39]: > 100 µM
TGI [39]: > 100 µM
GI50 [40]: > 100 µM
TGI [40]: > 100 µM
GI50 [41]: > 100 µM
TGI [41]: > 100 µM
GI50 [42]: 13.1 µM
TGI [42]: 62.5 µM
GI50 [43]: 21.3 µM
TGI [43]: > 100 µM
GI50 [44]: 76.2 µM
TGI [44]: > 100 µM
GI50 [45]: > 100 µM
TGI [45]: > 100 µM
GI50 [46]: 57.7 µM
TGI [46]: > 100 µM
GI50 [47]: 43.3 µM
TGI [47]: > 100 µM
GI50 [48]: 25.3 µM
TGI [48]: > 100 µM
GI50 [49]: 91.4 µM
TGI [49]: > 100 µM
GI50 [50]: > 100 µM
TGI [50]: > 100 µM
GI50 [51]: 65.9 µM
TGI [51]: > 100 µM
GI50 [52]: > 100 µM
TGI [52]: > 100 µM
GI50 [53]: > 100 µM
TGI [53]: > 100 µM
GI50 [54]: > 100 µM
TGI [54]: > 100 µM
GI50 [55]: > 100 µM
TGI [55]: > 100 µM
GI50 [56]: 49.4 µM
TGI [56]: > 100 µM
GI50 [57]: 89.6 µM
TGI [57]: > 100 µM
